Measured values: patent US12338251B2, “Substituted macrocycles useful as kinase inhibitors” (TELIGENE LTD, priority 2019, dated 2025)
≈ marks a conversion by molar mass, not a printed value.

How the values were obtained:
[1] = Stability test for one month, purity by HPLC; format: physicochemical; conditions: for Day 30 at 25° C. (purity): HPLC purity after 30 days at 25° C.; for Day 0 (purity): HPLC purity, baseline of stability test
Method: Stability test: The compounds were tested for their stability at 25° C. for one month, using HPLC to measure the purity. […] Compound 2 is not stable at −30° C. […] (Table F).

[2] = Solubility measurement (HPLC); format: physicochemical; conditions: for solubility at 30 min: pH 7.0 buffer solution (20 mM), aqueous buffer, thermodynamic from solid
Method: Preparation of reference standard solution: 2 mg of Compound was added individually to 100 mL volumetric flask each. The compound was diluted with acetonitrile to 100 mL.
Preparation of sample solution: 2 mg of Compound was added individually to 2 mL eppendorf tube (EP), followed by addition of 1 mL of pH 7.0 or 10.0 buffer solution (20 mM). The solution was shaken for 2 minutes and left for 30 minutes at 25° C. After standing for 30 minutes, precipitate was formed in the bottom of the EP. The solutions were filtered through a 0.2 um membrane filter, and then diluted by 50 times with water.
The standard and sample solutions were injected into the HPLC on a Shim-Pack CLC-ODS C18 column (150 mm×6.0 mm, 5 μm) with the same volume. The mobile phase consisted of acetonitrile with 2% trichloromethane—20 mM KH2PO4 buffer (pH=7.0) at a flow rate of 1 mL/minute (40:60). The detection wavelength is at 264 nm. Calculation: solubility of sample=the concentration of standard×Area of sample×50/Area of standard.

[3] = Stability test for one month, purity by HPLC; format: physicochemical; conditions: HPLC purity after 30 days at 0° C.
[4] = target: CYP 3A4 (Homo sapiens (Human), UniProt P08684); assay: P450 3A4 assay in human liver microsomes (CYP inhibition); format: in vitro ADME; conditions: for IC50: testosterone probe substrate
Chain of CYP 3A4 (P08684 whole entry): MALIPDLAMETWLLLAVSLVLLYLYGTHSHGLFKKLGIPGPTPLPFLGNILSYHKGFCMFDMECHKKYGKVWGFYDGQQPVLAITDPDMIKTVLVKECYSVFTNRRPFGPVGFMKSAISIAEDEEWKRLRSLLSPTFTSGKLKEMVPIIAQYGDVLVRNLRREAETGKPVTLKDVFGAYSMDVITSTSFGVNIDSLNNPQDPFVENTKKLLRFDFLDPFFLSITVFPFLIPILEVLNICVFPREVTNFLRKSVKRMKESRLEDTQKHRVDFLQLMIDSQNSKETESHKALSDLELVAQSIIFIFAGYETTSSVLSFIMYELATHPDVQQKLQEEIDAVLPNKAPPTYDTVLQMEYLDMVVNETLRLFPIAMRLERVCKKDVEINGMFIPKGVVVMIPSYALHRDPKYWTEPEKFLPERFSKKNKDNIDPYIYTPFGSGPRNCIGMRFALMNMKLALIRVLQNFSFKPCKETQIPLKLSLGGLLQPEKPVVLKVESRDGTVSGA
Method: The final concentrations of DMSO and acetonitrile were equal to or less than 0.1%.
The column temperature was maintained at ambient temperature (25° C.). […] The flow rate was maintained at 0.6 mL/min.

[5] = PK study (bioavailability); format: in vivo; conditions: rats; 1 mg/kg IV and 10 mg/kg orally; parent compound plus major metabolites
Method: A representative protocol for the PK (pharmacokinetic) assay was as followed: Compounds were given either IV or orally to the same animals. The dose for each compound was 1 mg/kg (volume 5 ml/kg) IV and 10 mg/kg (volume 10 ml/kg) orally. The formulation for IV was in 10% SOLUTOL® HS 15+90% Phosphate-Buffered Saline at […]. A 100% (0.5% Tween 80 in 0.5% methylcellulose (MC) in water) at […] suspension was used for the oral formulation. Sample collection: for the IV route, plasma samples were collected at the time points of 0.083, 0.25, 0.5, 1, 2, 4, 8 and 24 hr. For the oral route, plasma samples were collected at the time points of 0.25, 0.5, 1, 2, 4, 8 and 24 hr. Total bioavailability is calculated by adding parent compound and major metabolites. Analysis: LC-MS/MS was used to calculate PK parameters: t1/2, tmax, Cmax, Vss and AUC, etc.
The following Table E lists selected compounds and their bioavailability (F).
Compound 3 and 4 have much improved bioavailability (F=100%).

[6] = system: BaF3-SLC34A2-ROS1 cell line xenograft; assay: In vivo xenograft assay, subcutaneous BaF3-SLC34A2-ROS1 in nude mice; design: species or system Balb/c nude mice; conditions: 5 mg/kg oral gavage once daily; for Tumor weight at Day 20: nude mice, control 2.118 g
Description: A representative protocol for the in vivo experiment is as followed to establish the subcutaneous BaF3—SLC34A2-ROS1 cell line xenograft model in nude mice and to evaluate the in vivo therapeutic efficacy of the compounds:
Animals: Male Balb/c nude mice (6˜8 weeks old) were obtained from SLAC Laboratory Animal, Shanghai, China. Animals were maintained under SPF conditions in sterile filter top cages and housed on HEPA-filtered ventilated racks. Animals received sterile rodent chow and water ad libitum.
Cell line: BaF3—SLC34A2-ROS1, S.C.
Xenograft Models in Athymic Mice: Cells for implantation into athymic mice were harvested and pelleted by centrifugation at 1200 r/min for 5 min. Cells were washed once and resuspended in sterile PBS buffer with 5×10^6 in 200 μl. Then cells were implanted s.c. into the right scapular region of each mouse and allowed to grow to 200-300 mm^3 before the administration of compound.
Preparation of the Dose Formulation: each compound was suspended in 0.5% sodium carboxymethyl cellulose (CMC-Na). […]
Observations: After inoculation, the animals are checked daily for morbidity and mortality. At the time of routine monitoring, the animals are checked for any effects of tumor growth and treatments on normal behavior such as mobility, body weight gain/loss (body weights are measured twice weekly or every other day), eye/hair matting and any other abnormal effect. Death and observed clinical signs are recorded on the basis of the numbers of animals within each subset.
Tumor Size Measurements: Tumor volume was determined by measurement with electronic vernier calipers every 3 days and tumor volume was calculated as the product of its length×width2×0.5. […]
Percentage (%) inhibition values were measured for drug-treated mice compared with vehicle-treated mice and are calculated as follows: Tumor growth inhibition (TGI, %)=100−[MTV treated/MTV control]×100, where MTV is the median tumor volume. Significant differences between the treated versus the control groups (p<0.05) were determined using t test. […]

[7] = system: Ba/F3 EML4-ALK-WT; assay: Cell proliferation assay (CTG), Ba/F3 EML4-ALK-WT; format: cell-based; conditions: Mus musculus, BaF3, 72 hours
Method: (§1) A Representative Number of Compounds were Assayed Against BAF3 Cell Lines Using the Cell Proliferation Assays:
(§2) Cell Culture and Inoculation:
(§3) 1. Cells in logarithmic growth phase were harvested and counted by platelet counter. Trypan blue exclusion method was used to detect the cell viability to ensure that the cell viability was above 90%.
(§4) 2. Adjust the cell concentration; 90 μL cell suspension was added to 96 well plates respectively.
(§5) 3. Cells in 96-well plate were cultured overnight at 37° C., 5% CO2 and 95% of humidity.
(§6) Drug Dilution and Dosing:
(§7) 1. Prepare 10-fold drug solution with the highest concentration of 100 μM, 9 concentrations and 3.16-fold dilution. Add 10 μL of drug solution to each well of 96-well plate inoculated with cells, and set up 3 duplicate wells for each drug concentration.
(§8) 2. Cells in 96-well plates with drug added were cultured for 72 hours at 37° C., 5% CO2 and 95% of humidity, and then […]-GLO® (CTG) analysis was performed.
(§9) 1. Melt CTG reagent and equilibrate cell plates to room temperature for 30 minutes.
2. […]
(§10) 5. Read the cold light value.
(§11) The data were analyzed by GraphPad Prism 5.0 software, and the dose-effect curve was obtained by fitting the data by nonlinear S-curve regression, and IC50 value was calculated accordingly.
(§12) Cell survival rate (%)=(Lumdrug to be tested−Lumculture solution control)/(Lumcell control−Lumculture solution control)×100%. Lum is luminescence. […]

[8] = system: Ba/F3 EML4-ALK-L1196M; assay: Cell proliferation assay (CTG), Ba/F3 EML4-ALK-L1196M; format: cell-based; conditions: 72 hours
Method: as §1, §2, §3, §4, §5, §6, §7, §8, §9
2. […]
as §10, §11, §12

[9] = One-month toxicity studies in rats; format: in vivo; conditions: 8 mg/kg/day females and 16 mg/kg/day males

SMILES	Day 30 at 25° C. (purity) [1]	Day 0 (purity) [1]	Day 30 at 0° C. (purity) [3]	IC50 [4]	Tumor weight at Day 20 [6]	Stability at 0° C. or 25° C. (in words) ([1]; one month)	solubility at 30 min ([2]; pH 7.0 buffer (20 mM), 25° C.)	other results
C[C@H]1Oc2cc(cnc2NC(=O)CN)-c2c(nn(C)c2C#N)CN(C)C(=O)c2ccc(F)cc21 [Compound 2, reference compound]	86.14%	97.28%	92.58%	10 µM	–	–	–	Stability at 25° C. (in words) ([1]; 25° C., one month): decomposed significantly; Major impurity A at Day 0 ([1]; HPLC, Day 0): 1.13%; Major impurity B at Day 0 ([1]; HPLC, Day 0): 1.39%; Major impurity A at Day 30 ([1]; HPLC, Day 30 at 25° C.): 3.98%; Major impurity B at Day 30 ([1]; HPLC, Day 30 at 25° C.): 8.34%; Stability at −30° C. (in words) ([1]; −30° C.): not stable; Solubility at pH 7.0 ([2]; pH 7.0 buffer (20 mM), 25° C.): 0.091 mg/mL; Total F (%) (oral bioavailability) [5]: 49%
CC(=O)NCC(=O)Nc1ncc2cc1O[C@H](C)c1cc(F)ccc1C(=O)N(C)Cc1nn(C)c(C#N)c1-2 [Compound 3]	99.16%	99.24%	99.18%	279 µM	0.327 g	no significant changes	772 µg/mL (≈ 1530 µM)	Tumor growth inhibition at day 20 (in words) ([6]; compared with Lorlatinib): significant better tumor growth inhibition; IC50 [7]: 2.8 nM; Solubility at pH=7.0 (in words) ([2]; compared with compound 2 and Lorlatinib): much higher solubility; IC50 [8]: 51 nM; CYP 3A4 inhibition (in words) ([4]; compared with Lorlatinib and Compound 2): much weaker inhibition
COC(=O)NCC(=O)Nc1ncc2cc1O[C@H](C)c1cc(F)ccc1C(=O)N(C)Cc1nn(C)c(C#N)c1-2 [Compound 4]	97.25%	97.23%	97.13%	–	–	no significant changes	–	–
CCOC(=O)NCC(=O)Nc1ncc2cc1O[C@H](C)c1cc(F)ccc1C(=O)N(C)Cc1nn(C)c(C#N)c1-2 [Compound 5]	99.05%	99.05%	99.01%	–	–	no significant changes	–	–
C[C@H]1Oc2cc(cnc2N)-c2c(nn(C)c2C#N)CN(C)C(=O)c2ccc(F)cc21 [Lorlatinib, reference compound]	–	–	–	–	0.531 g	–	29 µg/mL (≈ 71.4 µM)	Prothrombin time [9]: shorten time; #LYMPH and Red blood cell in blood ([9]; end of administration and recovery periods): decreased
